In patent publication US20230322797A1, “SOLID FORMS, PHARMACEUTICAL COMPOSITIONS AND PREPARATION OF HETEROAROMATIC MACROCYCLIC ETHER COMPOUNDS” (Nuvalent, Inc., priority 2022, published 2023):
Structures can show the parent of a compound that is named as a salt.

Legend:
Type in all cases: physicochemical
[1] = Desolvation experiments on solvated forms (heating, then XRPD)
Method: Desolvation experiments were carried out on the solvated forms identified during the polymorph screen to establish the relationships between the forms. Samples were heated to a temperature at which the solids fully desolvated (based on TG/DSC characterisation data) and where exothermic events were observed after desolvation a separate experiment was carried out to assess for additional solid forms.

[2] = Stability study of Compound 1 drug substance; conditions: 1 month / three months (Example 10)
Method: A stability study is conducted for Compound 1. Samples were stored at: 30° C.±2° C./65%±5% Relative Humidity (RH), or 40° C.±2° C./75%±5% RH. At regular intervals (e.g., initial, 1, 3, 6, 9, 12, 18, 24, and 36 months), tests are performed for description, assay, related substances, water content, polymorphic form, and chiral purity.
A stability study was conducted for Compound 1 crystalline free base Form 2. Samples were stored at: (1) 30° C.±2° C./65%±5% Relative Humidity (RH), with data collected at 0, 1, 3, 6, 9, and 12 months; and (2) 40° C.±2° C./75%±5% RH, with data collected at 0, 1, 3, and 6 months. At the indicated time points, tests were performed for description, assay, related substances, water content, polymorphic form, and chiral purity.

[3] = Solubility of Compound 1 salts in organic solvents (solvent volumes)
Method: Preparation of Additional Salts: Additional salts shown in the Table below were prepared using procedures similar to those described above and the solubility of the resulting salts of Compound 1 was evaluated.

[4] = Solubility of salts of Compound 2 and free base in distilled water (gravimetric)
Method: Solubility of the scaled-up salts of Compound 2 and free base Compound 2 was assessed in distilled water at RT. Approximately 30 mg of solid was weighed directly into 2 mL vials, and a 6 mm stir bar was added to each vial. Water was then incrementally added to the vials (starting with 1 vol.) and the resulting slurries were left to stir for 10-15 min prior to the next addition. As all solids remained in slurries upon the addition of 1 mL of water, the gravimetric method was adopted, and the vials were stirred at RT for 3 days before centrifuging. Supernatant solutions were recovered and evaporated to dryness at 50° C. in atmosphere on a hot plate, then placed at 50° C. under vacuum (˜−29 inHg) for 3 h before final weighing.

[5] = target temperature 150 °C, after desolvation
[6] = target temperature 200 °C, after exothermic event

| Structure (SMILES) | Solid Form post-heating [1, 5] | Solubility, Volume (at 10-20° C.) ([3]; 2-MeTHF) | Solubility, Volume (at 10-20° C.) ([3]; Acetone) | Solubility, Volume (at 10-20° C.) ([3]; CPME) | Solubility, Volume (at 10-20° C.) ([3]; EtOAc) | Solubility, Volume (at 10-20° C.) ([3]; IPA) | Solubility, Volume (at 10-20° C.) ([3]; IPAc) | Solubility, Volume (at 10-20° C.) ([3]; MeCN) | Solubility, Volume (at 10-20° C.) ([3]; THF) | Solubility, Volume (at 10-20° C.) ([3]; Toluene) | Solubility, Volume (at 10-20° C.) ([3]; t-AmOH) | other results |
| --- | --- | --- | --- | --- | --- | --- | --- | --- | --- | --- | --- | --- |
| CCn1nc(Cl)c2c1-c1cnc(N)c(c1)O[C@H](C)c1cc(F)ccc1-c1nn(C)cc1C2 [Form 1] | Form 2 | – | – | – | – | – | – | – | – | – | – | Solid Form post-heating ([1]; target temperature 105 °C, after desolvation): Form 2 |
| CCn1nc(Cl)c2c1-c1cnc(N)c(c1)O[C@H](C)c1cc(F)ccc1-c1nn(C)cc1C2 [Form 11] | – | – | – | – | – | – | – | – | – | – | – | Solid Form post-heating ([1]; target temperature 130 °C, after desolvation): Form 2; Solid Form post-heating [1, 6]: Form 2 |
| CCn1nc(Cl)c2c1-c1cnc(N)c(c1)O[C@H](C)c1cc(F)ccc1-c1nn(C)cc1C2 [Form 13] | Form 2 | – | – | – | – | – | – | – | – | – | – | – |
| CCn1nc(Cl)c2c1-c1cnc(N)c(c1)O[C@H](C)c1cc(F)ccc1-c1nn(C)cc1C2 [Compound 1] | – | – | – | – | – | – | – | – | – | – | – | Chemical and physical stability (description, assay, related substances, water content, polymorphic form, chiral purity) ([2]; 30° C.±2° C./65%±5% RH): No meaningful changes; Chemical and physical stability (description, assay, related substances, water content, polymorphic form, chiral purity) ([2]; 40° C.±2° C./75%±5% RH): No meaningful changes |
| CCn1nc(Cl)c2c1-c1cnc(N)c(c1)O[C@H](C)c1cc(F)ccc1-c1nn(C)cc1C2 [Form 8] | Form 2 | – | – | – | – | – | – | – | – | – | – | Solid Form post-heating [1, 6]: Form 2 |
| CCn1nc(Cl)c2c1-c1cnc(N)c(c1)O[C@H](C)c1cc(F)ccc1-c1nn(C)cc1C2 [H3PO4 salt] | – | >160 V | 58-60 V | >500 V | >100 V | 140-150 V | >400 V | >400 V | >160 V | >400 V | >400 V | – |
| CCn1nc(Cl)c2c1-c1cnc(N)c(c1)O[C@H](C)c1cc(F)ccc1-c1nn(C)cc1C2 [Form 12] | Form 2 | – | – | – | – | – | – | – | – | – | – | – |
| CCn1nc(Cl)c2c1-c1cnc(N)c(c1)O[C@H](C)c1cc(F)ccc1-c1nn(C)cc1C2 [Form 7] | – | – | – | – | – | – | – | – | – | – | – | Solid Form post-heating ([1]; target temperature 134 °C, after desolvation): Form 2 |
| CCn1nc(Cl)c2c1-c1cnc(N)c(c1)O[C@H](C)c1cc(F)ccc1-c1nn(C)cc1C2 [Form 10] | Form 2 | – | – | – | – | – | – | – | – | – | – | – |
| CCn1cc(Cc2cn(C)nc2-c2ccc(F)cc2[C@@H](C)Oc2cc(Br)cnc2N)c(Cl)n1 [Free Base] | – | – | – | – | – | – | – | – | – | – | – | Solubility (mg solid/mL water) ([4]; distilled water, RT, stirred 3 days, gravimetric): <3 mg solid/mL water; XRPD Pattern Recovered ([4]; solid recovered after slurry in water at RT): Amorphous |
| CCn1nc(Cl)c2c1-c1cnc(N)c(c1)O[C@H](C)c1cc(F)ccc1-c1nn(C)cc1C2 [HCl salt] | – | >400 V | 22-24 V | >500 V | >400 V | 8-10 V | >400 V | 8-10 V | 300-400 V | >400 V | 18-20 V | – |
| CCn1nc(Cl)c2c1-c1cnc(N)c(c1)O[C@H](C)c1cc(F)ccc1-c1nn(C)cc1C2 [Form 15] | Amorphous | – | – | – | – | – | – | – | – | – | – | Solid Form post-heating [1, 6]: Form 2 |
| CCn1nc(Cl)c2c1-c1cnc(N)c(c1)O[C@H](C)c1cc(F)ccc1-c1nn(C)cc1C2 [Fumaric Acid salt] | – | 8-10 V | 8-10 V | 50-60 V | 80-90 V | 8-9 V | 90-100 V | 150-200 V | 3-4 V | >400 V | 22-24 V | – |
| CCn1nc(Cl)c2c1-c1cnc(N)c(c1)O[C@H](C)c1cc(F)ccc1-c1nn(C)cc1C2 [L-Tartaric Acid Salt] | – | 4-6 V | 2-4 V | 60-70 V | 12-14 V | 18-20 V | 52-56 V | 30-32 V | 8-10 V | >400 V | 18-20 V | – |
| CCn1nc(Cl)c2c1-c1cnc(N)c(c1)O[C@H](C)c1cc(F)ccc1-c1nn(C)cc1C2 [Salicylic acid salt] | – | 18-20 V | 26-28 V | 100-140 V | 26-30 V | 300-400 V | 56-60 V | 90-100 V | 4-6 V | 320-360 V | >400 V | – |
| CCn1nc(Cl)c2c1-c1cnc(N)c(c1)O[C@H](C)c1cc(F)ccc1-c1nn(C)cc1C2 [Form 4] | – | – | – | – | – | – | – | – | – | – | – | Solid Form post-heating ([1]; target temperature 132 °C, after desolvation): Form 2; Solid Form post-heating ([1]; target temperature 170 °C, after exothermic event): Form 2 |
| CCn1nc(Cl)c2c1-c1cnc(N)c(c1)O[C@H](C)c1cc(F)ccc1-c1nn(C)cc1C2 [Citric Acid salt] | – | 8-10 V | 6-8 V | 330 V | >400 V | 24-28 V | >400 V | 300-400 V | 10-12 V | >400 V | 86-90 V | – |
| CCn1nc(Cl)c2c1-c1cnc(N)c(c1)O[C@H](C)c1cc(F)ccc1-c1nn(C)cc1C2 [MSA salt] | – | >400 V | 56-60 V | >400 V | 300-400 V | 56-60 V | 260-300 V | 6-8 V | 60-100 V | >400 V | 340-360 V | – |
| CCn1nc(Cl)c2c1-c1cnc(N)c(c1)O[C@H](C)c1cc(F)ccc1-c1nn(C)cc1C2 [Form 9] | Form 2 | – | – | – | – | – | – | – | – | – | – | – |
| CCn1nc(Cl)c2c1-c1cnc(N)c(c1)O[C@H](C)c1cc(F)ccc1-c1nn(C)cc1C2 [Maleic Acid salt] | – | 50-60 V | 2-4 V | 220 V | 20-30 V | 70-80 V | 20-30 V | 16-20 V | 2-4 V | >400 V | 6-8 V | – |
| CCn1nc(Cl)c2c1-c1cnc(N)c(c1)O[C@H](C)c1cc(F)ccc1-c1nn(C)cc1C2 [TsOH salt] | – | >400 V | 10-12 V | >400 V | 18-20 V | >400 V | 18-20 V | 8-10 V | 280-300 V | >400 V | >400 V | – |
